Data: patent publication US5998648A, “Anticancer (IV) complexes for oral administration and a method of making the same” (Korea Institute of Science and Technology, priority 1997, dated 1999)

Experiments:
L1210 leukemia = assay: Oral anticancer activity (survival time of L1210 leukemia-implanted BDF1 mice); assay type: in vivo, BDF1 mice; L1210 cells from DBA/2 mice; conditions: for Increase ratio in the survival time (T/C, %): Dose 150 mg/kg, daily for consecutive five days, L1210 implanted intraperitoneally
Experimental: The oral anticancer activity of the hexa-coordinate platinum(IV) complexes of the present invention was evaluated as follows. A group of eight 6-week old BDF1 mice was employed to test for each compound. 1×10^5 cells of L1210 leukemia in ascitic fluid from DBA/2 mice were implanted intraperitoneally in each mouse. The test solutions containing platinum(IV) complexes at different concentrations were orally administered daily for consecutive five days. The survival time of each group of the mice was recorded. The percent increase in the survival time as compared to the control group, T/C (%), was calculated as an indicator of the anticancer activity. The results are summarized in Table I. Drugs that have more than 125% of the T/C (%) values can be considered as efficient anticancer drugs. […] It is expected that the complex in Example 1 could be practically applicable since the acute toxicity was also low (LD50 =300 mg/kg)

Acute toxicity = assay type: in vivo

| Compound | Increase ratio in the survival time (T/C, %) (L1210 leukemia) | anticancer activity (in words) (L1210 leukemia) | acute toxicity / toxicity (in words) (Acute toxicity; in vivo) | acute toxicity LD50 (Acute toxicity; species and route not given) |
| --- | --- | --- | --- | --- |
| CCCC(=O)[O][Pt]1([O]C(=O)CCC)([O]C(=O)CCC)([O]C(=O)CCC)[NH]C2CCCCC2[NH]1 (stereo not drawn) [Example 2] | 139.1% | – | – | – |
| CCCC(=O)[O][Pt]1([O]C(=O)CCC)([O]C(=O)CCC)([O]C(=O)CCC)[NH]CC[NH]1 [Example 4, (NH2 CH2 CH2 NH2)Pt(OOCC3 H7)4] | 115.4% | – | – | – |
| CCC(=O)[O][Pt]([O]C(=O)CC)([O]C(=O)CC)[O]C(=O)CC.NC1CCCCC1N [Example 1] | 160.9% | excellent anticancer activity | low | 300 mg/kg |
| (DACH)PtCl2 (OAc)4 [compound 2, reference compound] | 103.1% | – | – | – |
| [NH2 CH2 C(CH3)2 CH2 NH2 ]Pt(OOCC2 H5)4 [Example 6] | 130.8% | – | – | – |
| [OH][Pt]1([OH])([OH])([OH])[NH]C2CCCCC2[NH]1 (stereo not drawn) [compound 1, (DACH)Pt(OH)4, reference compound] | 108.8% | – | – | – |
